Test results taken from patent US10927123B2, “Modulators of the beta-3 adrenergic receptor useful for the treatment or prevention of disorders related thereto” (Arena Pharmaceuticals, Inc., priority 2016, dated 2021).

molecular target: Beta-3 Adrenergic Receptor (Homo sapiens (Human), UniProt P13945); test: HTRF cAMP antagonist assay (IC50 determination); assay type: cell-based; settings: CHO-K1 cells stably expressing recombinant receptor; antagonism of isoproterenol at EC90; cAMP readout
Procedure: HTRF cAMP assays were performed according to manufacturer's instructions (Cisbio, cAMP Dynamic 2 Assay Kit; #62AM4PEJ). CHO-K1 cells stably expressing recombinant receptor were harvested and suspended in warm PBS to make a 300,000 cells/mL stock. This cell suspension was dispensed into 384 well assay plates (PerkinElmer ProxiPlate #6008280) at 5 μL per well (1500 cells/well) along with a cAMP standard curve.
Compounds were dissolved and serially diluted (5-fold) in DMSO to generate a 10-point dose response stock. The stock was then diluted 100-fold in assay buffer (PBS containing 1 mM IBMX) before a volume of 2.5 μL was added to the cells (the final, top concentration of compound in the dose-response is typically 10 or 100 μM). After a brief incubation, 2.5 μL of isoproterenol stock, prepared at a concentration 4 times its EC90 at the receptor of interest, was added to the wells. The EC90 for isoproterenol, a beta-adrenergic agonist, was determined in separate experiments using standard methods to measure agonist potencies.
Following a 1-hour incubation at room temperature, 5 μL of cAMP-D2 Reagent diluted in Lysis Buffer was added to each well followed by 5 μL of Cryptate Reagent. Plates were further incubated at room temperature for 1 hour prior to reading. Time resolved fluorescence measurements were collected on a suitable, HTRF-capable plate reader.
Counts from the plate reader were fit to the cAMP standard curve on the assay plate in order to determine cAMP concentrations in each well, and these values were used to construct dose-response curves to obtain IC50 values.

Sequence of Beta-3 Adrenergic Receptor (P13945 whole entry, species assumed): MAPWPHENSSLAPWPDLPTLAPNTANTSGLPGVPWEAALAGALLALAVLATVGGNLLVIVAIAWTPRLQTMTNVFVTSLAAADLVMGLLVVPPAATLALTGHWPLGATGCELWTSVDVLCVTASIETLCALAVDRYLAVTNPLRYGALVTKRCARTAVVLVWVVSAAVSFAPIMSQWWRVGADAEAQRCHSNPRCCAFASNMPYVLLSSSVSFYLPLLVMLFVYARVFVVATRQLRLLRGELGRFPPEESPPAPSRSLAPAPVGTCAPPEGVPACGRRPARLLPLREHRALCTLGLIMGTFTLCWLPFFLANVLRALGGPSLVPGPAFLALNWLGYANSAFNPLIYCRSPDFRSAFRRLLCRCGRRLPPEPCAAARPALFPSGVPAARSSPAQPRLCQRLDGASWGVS

| IC50 | Compound |
| --- | --- |
| 70.8 nM | CS(=O)(=O)c1cccc(OC[C@@H](O)CNC2COC3(CCN(S(=O)(=O)c4cccc(-c5cnn(C6CC6)c5)c4)CC3)C2)c1 (stereo partly drawn) [Compound 39, (2S)-1-(8-(3-(1-cyclopropyl-1H-pyrazol-4-yl)phenylsulfonyl)-1-oxa-8-azaspiro[4.5]decan-3-ylamino)-3-(3-(methylsulfonyl)phenoxy)propan-2-ol] |
| 20.3 nM | Cn1cc(-c2cccc(S(=O)(=O)N3CCC4(CC3)CC(NC[C@H](O)COc3cccc(S(C)(=O)=O)c3)CO4)c2)cn1 (stereo partly drawn) [Compound 40, (2S)-1-(8-(3-(1-methyl-1H-pyrazol-4-yl)phenylsulfonyl)-1-oxa-8-azaspiro[4.5]decan-3-ylamino)-3-(3-(methylsulfonyl)phenoxy)propan-2-ol] |
| 13.7 nM | CS(=O)(=O)c1cccc(OC[C@@H](O)CNC2COC3(CCN(S(=O)(=O)c4cccc(-c5ccc(CN)cc5)c4)CC3)C2)c1 (stereo partly drawn) [Compound 41, (2S)-1-(8-(4′-(aminomethyl)biphenyl-3-ylsulfonyl)-1-oxa-8-azaspiro[4.5]decan-3-ylamino)-3-(3-(methylsulfonyl)phenoxy)propan-2-ol] |
| 18.7 nM | CS(=O)(=O)c1cccc(OC[C@@H](O)CNC2COC3(CCN(S(=O)(=O)c4cccc(-c5ccc(S(N)(=O)=O)cc5)c4)CC3)C2)c1 (stereo partly drawn) [Compound 42, 3′-(3-((S)-2-hydroxy-3-(3-(methylsulfonyl)phenoxy)propylamino)-1-oxa-8-azaspiro[4.5]decan-8-ylsulfonyl)biphenyl-4-sulfonamide] |
| 32.4 nM | CS(=O)(=O)c1cccc(OC[C@@H](O)CNC2COC3(CCN(S(=O)(=O)c4cccc(-c5ccncc5)c4)CC3)C2)c1 (stereo partly drawn) [Compound 43, (2S)-1-(3-(methylsulfonyl)phenoxy)-3-(8-(3-(pyridin-4-yl)phenylsulfonyl)-1-oxa-8-azaspiro[4.5]decan-3-ylamino)propan-2-ol] |
| 21.5 nM | Cc1cc(-c2cccc(S(=O)(=O)N3CCC4(CC3)CC(NC[C@H](O)COc3cccc(S(C)(=O)=O)c3)CO4)c2)ccn1 (stereo partly drawn) [Compound 44, (2S)-1-(8-(3-(2-methylpyridin-4-yl)phenylsulfonyl)-1-oxa-8-azaspiro[4.5]decan-3-ylamino)-3-(3-(methylsulfonyl)phenoxy)propan-2-ol] |
| 23.6 nM | CS(=O)(=O)c1cccc(OC[C@@H](O)CNC2COC3(CCN(S(=O)(=O)c4cccc(-c5ccccn5)c4)CC3)C2)c1 (stereo partly drawn) [Compound 45, (2S)-1-(3-(methylsulfonyl)phenoxy)-3-(8-(3-(pyridin-2-yl)phenylsulfonyl)-1-oxa-8-azaspiro[4.5]decan-3-ylamino)propan-2-ol] |
| 87 nM | CS(=O)(=O)c1cccc(OC[C@@H](O)CNC2COC3(CCN(S(=O)(=O)c4cccnc4)CC3)C2)c1 (stereo partly drawn) [Compound 46, (2S)-1-(3-(methylsulfonyl)phenoxy)-3-(8-(pyridin-3-ylsulfonyl)-1-oxa-8-azaspiro[4.5]decan-3-ylamino)propan-2-ol] |
| 82.1 nM | CS(=O)(=O)c1cccc(OC[C@@H](O)CNC2COC3(CCN(S(=O)(=O)c4ccccc4)CC3)C2)c1 (stereo partly drawn) [Compound 47, (2S)-1-(3-(methylsulfonyl)phenoxy)-3-(8-(phenylsulfonyl)-1-oxa-8-azaspiro[4.5]decan-3-ylamino)propan-2-ol] |
| 46.1 nM | Cc1cccc(S(=O)(=O)N2CCC3(CC2)CC(NC[C@H](O)COc2cccc(S(C)(=O)=O)c2)CO3)c1 (stereo partly drawn) [Compound 48, (2S)-1-(3-(methylsulfonyl)phenoxy)-3-(8-(m-tolylsulfonyl)-1-oxa-8-azaspiro[4.5]decan-3-ylamino)propan-2-ol] |
| 33.1 nM | COc1cccc(S(=O)(=O)N2CCC3(CC2)CC(NC[C@H](O)COc2cccc(S(C)(=O)=O)c2)CO3)c1 (stereo partly drawn) [Compound 49, (2S)-1-(8-(3-methoxyphenylsulfonyl)-1-oxa-8-azaspiro[4.5]decan-3-ylamino)-3-(3-(methylsulfonyl)phenoxy)propan-2-ol] |
| 42.2 nM | CS(=O)(=O)c1cccc(OC[C@@H](O)CNC2COC3(CCN(S(=O)(=O)c4cccc(C(F)(F)F)c4)CC3)C2)c1 (stereo partly drawn) [Compound 50, (2S)-1-(3-(methylsulfonyl)phenoxy)-3-(8-(3-(trifluoromethyl)phenylsulfonyl)-1-oxa-8-azaspiro[4.5]decan-3-ylamino)propan-2-ol] |
| 17.4 nM | CS(=O)(=O)c1cccc(OC[C@@H](O)CNC2COC3(CCN(S(=O)(=O)c4ccc(-c5ccccc5)s4)CC3)C2)c1 (stereo partly drawn) [Compound 51, (2S)-1-(3-(methylsulfonyl)phenoxy)-3-(8-(5-phenylthiophen-2-ylsulfonyl)-1-oxa-8-azaspiro[4.5]decan-3-ylamino)propan-2-ol] |
| 61.2 nM | Cc1noc(C)c1S(=O)(=O)N1CCC2(CC1)CC(NC[C@H](O)COc1cccc(S(C)(=O)=O)c1)CO2 (stereo partly drawn) [Compound 52, (2S)-1-(8-(3,5-dimethylisoxazol-4-ylsulfonyl)-1-oxa-8-azaspiro[4.5]decan-3-ylamino)-3-(3-(methylsulfonyl)phenoxy)propan-2-ol] |
| 23.9 nM | CS(=O)(=O)c1cccc(OC[C@@H](O)CNC2COC3(CCN(S(=O)(=O)c4ccc5c(c4)NC(=O)CO5)CC3)C2)c1 (stereo partly drawn) [Compound 53, 6-(3-((S)-2-hydroxy-3-(3-(methylsulfonyl)phenoxy)propylamino)-1-oxa-8-azaspiro[4.5]decan-8-ylsulfonyl)-2H-benzo[b][1,4]oxazin-3(4H)-one] |
| 45.9 nM | CS(=O)(=O)c1cccc(OC[C@@H](O)CNC2COC3(CCN(S(=O)(=O)c4cccc(F)c4)CC3)C2)c1 (stereo partly drawn) [Compound 54, (2S)-1-(8-(3-fluorophenylsulfonyl)-1-oxa-8-azaspiro[4.5]decan-3-ylamino)-3-(3-(methylsulfonyl)phenoxy)propan-2-ol] |
| 30.5 nM | CS(=O)(=O)c1cccc(OC[C@@H](O)CNC2COC3(CCN(S(=O)(=O)c4cccc(C#N)c4)CC3)C2)c1 (stereo partly drawn) [Compound 55, 3-(3-((S)-2-hydroxy-3-(3-(methylsulfonyl)phenoxy)propylamino)-1-oxa-8-azaspiro[4.5]decan-8-ylsulfonyl)benzonitrile] |
| 1990 nM | CS(=O)(=O)c1cccc(OC[C@@H](O)CNC2COC3(CCN(C(=O)Cc4csc(N)n4)CC3)C2)c1 (stereo partly drawn) [Compound 56, 2-(2-aminothiazol-4-yl)-1-(3-((S)-2-hydroxy-3-(3-(methylsulfonyl)phenoxy)propylamino)-1-oxa-8-azaspiro[4.5]decan-8-yl)ethanone] |
| 487 nM | CS(=O)(=O)c1cccc(OC[C@@H](O)CNC2COC3(CCN(C(=O)c4ccc5ccccc5c4)CC3)C2)c1 (stereo partly drawn) [Compound 57, (3-((S)-2-hydroxy-3-(3-(methylsulfonyl)phenoxy)propylamino)-1-oxa-8-azaspiro[4.5]decan-8-yl)(naphthalen-2-yl)methanone] |
| 109 nM | CCn1ncc(S(=O)(=O)N2CCC3(CC2)CC(NC[C@H](O)COc2cccc(S(C)(=O)=O)c2)CO3)c1C (stereo partly drawn) [Compound 58, (2S)-1-(8-(1-ethyl-5-methyl-1H-pyrazol-4-ylsulfonyl)-1-oxa-8-azaspiro[4.5]decan-3-ylamino)-3-(3-(methylsulfonyl)phenoxy)propan-2-ol] |
| 12.3 nM | CS(=O)(=O)c1cccc(OC[C@@H](O)CNC2COC3(CCN(S(=O)(=O)c4ccc5c(Cl)cccc5c4)CC3)C2)c1 (stereo partly drawn) [Compound 59, (2S)-1-(8-(5-chloronaphthalen-2-ylsulfonyl)-1-oxa-8-azaspiro[4.5]decan-3-ylamino)-3-(3-(methylsulfonyl)phenoxy)propan-2-ol] |
| 17.4 nM | CS(=O)(=O)c1cccc(OC[C@@H](O)CNC2COC3(CCN(S(=O)(=O)c4cc5ccccc5o4)CC3)C2)c1 (stereo partly drawn) [Compound 60, (2S)-1-(8-(benzofuran-2-ylsulfonyl)-1-oxa-8-azaspiro[4.5]decan-3-ylamino)-3-(3-(methylsulfonyl)phenoxy)propan-2-ol] |
| 29.8 nM | CS(=O)(=O)c1cccc(OC[C@@H](O)CNC2COC3(CCN(S(=O)(=O)c4ccc5occc5c4)CC3)C2)c1 (stereo partly drawn) [Compound 61, (2S)-1-(8-(benzofuran-5-ylsulfonyl)-1-oxa-8-azaspiro[4.5]decan-3-ylamino)-3-(3-(methylsulfonyl)phenoxy)propan-2-ol] |
| 24.5 nM | CS(=O)(=O)c1cccc(OC[C@@H](O)CNC2COC3(CCN(S(=O)(=O)c4ccc5[nH]ccc5c4)CC3)C2)c1 (stereo partly drawn) [Compound 62, (2S)-1-(8-(1H-indol-5-ylsulfonyl)-1-oxa-8-azaspiro[4.5]decan-3-ylamino)-3-(3-(methylsulfonyl)phenoxy)propan-2-ol] |
| 17.2 nM | CS(=O)(=O)c1cccc(OC[C@@H](O)CNC2COC3(CCN(S(=O)(=O)c4cccc(-c5cccnc5)c4)CC3)C2)c1 (stereo partly drawn) [Compound 63, (2S)-1-(3-(methylsulfonyl)phenoxy)-3-(8-(3-(pyridin-3-yl)phenylsulfonyl)-1-oxa-8-azaspiro[4.5]decan-3-ylamino)propan-2-ol] |
| 922 nM | CN1CCOc2cc(C(=O)N3CCC4(CC3)CC(NC[C@H](O)COc3cccc(S(C)(=O)=O)c3)CO4)ccc21 (stereo partly drawn) [Compound 64, (3-((S)-2-hydroxy-3-(3-(methylsulfonyl)phenoxy)propylamino)-1-oxa-8-azaspiro[4.5]decan-8-yl)(4-methyl-3,4-dihydro-2H-benzo[6][1,4]oxazin-7-yl)methanone] |
